In patent publication US20200377459A1, “CHARGED ION CHANNEL BLOCKERS AND METHODS FOR USE” (President and Fellows of Harvard College, priority 2015, published 2020):
“Also recorded” adds a separate entry of the source.

Experiments:
[1] = molecular target: T1, human Nav1.7 channels (Homo sapiens, UniProt Q15858); test: Whole-cell patch clamp, use-dependent block of sodium current, drug applied intracellularly or externally; assay type: cell-based
T1 construct: expressed in transfected cells
Protocol: Whole-cell recordings were made of currents carried by voltage-activated channels in HEK293 cells stably expressing human Nav1.7 channels. Recordings were made using patch pipettes with resistances of 2-3.5 MQ when filled with internal solution, consisting of 61 mM CsF, 61 mM CsCl, 9 mM NaCl, 1.8 mM MgCl2, 9 mM EGTA, 14 mM creatine phosphate (tris salt), 4 mM MgATP, and 0.3 mM GTP (tris salt), 9 mM HEPES, pH adjusted to 7.2 with CsOH. The shank of the electrode was wrapped with Parafilm in order to reduce capacitance and allow optimal series resistance compensation without oscillation. Seals were obtained and the whole-cell configuration established with cells in Tyrode's solution (155 mM NaCl, 3.5 mM KCl, 1.5 mM CaCl2), 1 mM MgCl2, 10 mM HEPES, 10 mM glucose, pH adjusted to 7.4 with NaOH) with 10 mM TEACl. To ensure complete dialysis with pipette solution, recordings began after 5 to 10 min after establishment of the whole-cell configuration.
Currents were recorded at room temperature (21-23° C.) with an Axopatch 200 amplifier and filtered at 5 kHz with a low-pass Bessel filter. The amplifier was tuned for partial compensation of series resistance (typically 70-80% of a total series resistance of 4-10 MO). Currents were digitized using a Digidata 1322A data acquisition interface controlled by pClamp9.2 software (Axon Instruments) and analyzed using programs written in Igor Pro 4.0 (Wavemetrics, Lake Oswego, Oreg.). Currents were corrected for linear capacitative and leak currents determined using 5 mV hyperpolarizations delivered from the resting potential (usually −80 or −100 mV) and then appropriately scaled and subtracted.
Sodium currents were evoked by 30-msec depolarizations from −100 mV to −20 mV. To assay use-dependent block, pulses were delivered at series of increasing rates: 0.05 Hz for 1-min, 0.33 Hz for 1-min, 1 Hz for 1-min, 3 Hz for 1-min, 5 Hz for 30 seconds, 10 Hz for 30 seconds, with 1 minute rest between each series of pulses. After the series of pulses to induce use-dependent block, the time course of recovery was followed using pulses delivered at 01. Hz (2-min) and 0.05 Hz (1-min).
To induce use-dependent block, the depolarizations were delivered by series of increasing rates: 0.05 Hz for 1-min, 0.33 Hz for 1-min, 1 Hz for 1-min, 3 Hz for 1-min, 5 Hz for 30 seconds, 10 Hz for 30 seconds, with 1 minute rest between each series of pulses. After the series of pulses to induce use-dependent block, the time course of recovery was followed using pulses delivered at 01. Hz (2-min) and 0.05 Hz (1-min). Peak sodium current was plotted as a function of experimental time (1-min per division on the time axis).

[2] = tested on: CFA-induced thermal hyperalgesia; test: CFA-induced thermal hyperalgesia (Hargreaves radiant heat, hind paw); assay type: in vivo; conditions: mice, intraplantar co-injection with CFA, 1%
Protocol: FIGS. 2A-2D show reversal of CFA-induced thermal hyperalgesia by charged sodium channel blockers. FIGS. 2A and 2C show time course (0, 1, 6, and 24 hours) of changes in thermal nociceptive sensitivity measured as response latency (seconds) to a constant radiant heat source applied to the plantar surface of hind paw in mice co-treated with 20 μL (injected in the left hindpaw) of CFA (50% emulsion) and saline, and when the CFA was co-applied with QX-314 (1%, hollow square), N-ethyl etidocaine (Compound 21, 1%; dark square), or ACS8180-3B (Compound 3, 1%; solid triangle). FIGS. 2B and 2D show the nociceptive heat pain response time before CFA treatment and after treatment with the different compounds 1 hour post CFA injection. The data are means±SEM of 8-16 mice per group. The statistical comparison with pre-CFA (*) and with CFA+Vehicle (+) is indicated by +P<0.05; ++P<0.01 and +++,*** P<0.001. All procedures were approved by the Institutional Animal Care and Use Committees. Mice and rats were housed in standard environmental conditions (12-h light/dark cycle; 23° C.; food and water ad libitum) at facilities accredited by the Association for Assessment and Accreditation of Laboratory Animal Care. 8-week old male BALB/c (stock number: 001026) and C57BL/6J (stock number 000664) mice were purchased from Jackson Laboratory and respectively used in allergic airway inflammation (FIG. 5) and pain hypersensitivity model (FIGS. 2A-2D). 6-week old male Sprague-Dawley (stock number: 400) rats, 150±25 grams, were purchased from Charles River laboratory and used to assess pain hypersensitivity (FIG. 3). The compounds were injected in the plantar surface of each animal's right hind paw in 10 μl (mice) or 50 μl (rats) volume of 1:1 emulsion of Complete Freund's Adjuvant (CFA). […] On the 4th day, their thermal nociceptive threshold was evaluated. […] Impact of treatment was analyzed 1 h prior and 1, 3, 6 and 24 h post-treatment. […] With each reading the apparatus was set with a cut-off time of 32 s.

[3] = tested on: thermal nociceptive threshold; test: Thermal nociceptive threshold after acute intraplantar injection in naive animals; assay type: in vivo, rats; conditions: for difference in thermal nociceptive threshold between contralateral and injected paw: rats, acute intraplantar injection 50 μl, 0.5%, no injury

T1 sequence (Q15858 whole entry): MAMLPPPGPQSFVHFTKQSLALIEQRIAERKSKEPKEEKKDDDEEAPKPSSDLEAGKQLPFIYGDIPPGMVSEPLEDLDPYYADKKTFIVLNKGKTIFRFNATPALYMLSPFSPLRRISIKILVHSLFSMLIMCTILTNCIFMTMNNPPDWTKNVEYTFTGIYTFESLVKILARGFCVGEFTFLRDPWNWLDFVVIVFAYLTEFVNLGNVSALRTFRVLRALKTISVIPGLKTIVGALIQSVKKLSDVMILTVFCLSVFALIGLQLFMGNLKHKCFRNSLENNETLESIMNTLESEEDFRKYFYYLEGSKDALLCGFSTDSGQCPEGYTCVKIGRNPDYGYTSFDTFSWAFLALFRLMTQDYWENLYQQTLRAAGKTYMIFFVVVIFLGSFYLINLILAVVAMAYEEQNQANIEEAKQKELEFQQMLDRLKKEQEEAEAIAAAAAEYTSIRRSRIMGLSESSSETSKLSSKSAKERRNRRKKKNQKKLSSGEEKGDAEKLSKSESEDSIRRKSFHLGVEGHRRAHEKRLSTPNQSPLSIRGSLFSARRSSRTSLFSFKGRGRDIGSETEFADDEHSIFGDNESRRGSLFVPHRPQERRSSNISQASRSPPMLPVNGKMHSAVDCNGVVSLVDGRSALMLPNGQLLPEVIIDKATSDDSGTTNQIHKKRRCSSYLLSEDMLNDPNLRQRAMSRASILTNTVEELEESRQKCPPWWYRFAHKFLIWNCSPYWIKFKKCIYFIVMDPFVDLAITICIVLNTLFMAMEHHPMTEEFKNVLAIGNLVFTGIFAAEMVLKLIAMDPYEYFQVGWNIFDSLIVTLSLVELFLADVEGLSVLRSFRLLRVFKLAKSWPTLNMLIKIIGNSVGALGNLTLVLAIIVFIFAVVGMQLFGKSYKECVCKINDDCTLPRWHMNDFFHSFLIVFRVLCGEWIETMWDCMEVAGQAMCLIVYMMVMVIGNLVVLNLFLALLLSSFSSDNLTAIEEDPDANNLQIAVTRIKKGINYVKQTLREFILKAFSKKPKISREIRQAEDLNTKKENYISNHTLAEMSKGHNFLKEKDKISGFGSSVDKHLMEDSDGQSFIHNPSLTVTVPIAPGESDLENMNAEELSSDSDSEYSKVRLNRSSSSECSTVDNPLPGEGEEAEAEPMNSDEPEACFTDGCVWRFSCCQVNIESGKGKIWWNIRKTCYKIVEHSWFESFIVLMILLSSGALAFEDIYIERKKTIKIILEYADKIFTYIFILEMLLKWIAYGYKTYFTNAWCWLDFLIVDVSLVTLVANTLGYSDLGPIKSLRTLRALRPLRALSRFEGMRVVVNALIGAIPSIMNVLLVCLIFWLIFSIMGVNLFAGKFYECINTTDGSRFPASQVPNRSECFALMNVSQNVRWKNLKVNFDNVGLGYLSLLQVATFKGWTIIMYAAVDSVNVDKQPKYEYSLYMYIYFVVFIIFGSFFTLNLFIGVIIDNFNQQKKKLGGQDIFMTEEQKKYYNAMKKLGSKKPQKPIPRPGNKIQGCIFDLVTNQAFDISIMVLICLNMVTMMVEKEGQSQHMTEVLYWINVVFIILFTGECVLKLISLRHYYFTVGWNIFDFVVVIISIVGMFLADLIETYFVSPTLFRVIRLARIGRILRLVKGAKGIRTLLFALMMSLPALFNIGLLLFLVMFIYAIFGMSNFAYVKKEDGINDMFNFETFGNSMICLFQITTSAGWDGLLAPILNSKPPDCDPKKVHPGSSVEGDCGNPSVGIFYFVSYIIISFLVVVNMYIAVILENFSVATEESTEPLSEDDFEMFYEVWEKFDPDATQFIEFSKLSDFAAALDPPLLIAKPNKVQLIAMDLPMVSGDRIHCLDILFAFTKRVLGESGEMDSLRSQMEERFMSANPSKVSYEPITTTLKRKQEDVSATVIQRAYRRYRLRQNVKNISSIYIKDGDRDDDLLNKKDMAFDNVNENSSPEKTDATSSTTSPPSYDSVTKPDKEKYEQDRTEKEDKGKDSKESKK

Row | Compound | inhibition at 100 µM [1] | reversal of CFA-induced thermal hyperalgesia [2] | long lasting analgesia in naïve animals ([3]; naïve animals) | difference in thermal nociceptive threshold between contralateral and injected paw [3] | use dependent accumulation of block ([1]; 100 micromolar inside cell, stimulation frequencies from 1 to 10 Hz)
1 | CCC[N+](CC)(CC)C(CC)C(=O)Nc1c(C)cccc1C (stereo not shown) [Compound 21, N-ethyl etidocaine] | 97% | reversed; also recorded: potent blockade | without long lasting analgesia | no differences | 
2 | CC[N+](CC)(CC)CC(=O)Nc1c(C)cccc1C [QX-314, reference compound] |  | reversed |  | no differences | strong use dependent accumulation of block
